This is an account of results in patent publication US20150065436A1, “INHIBITING INTERACTION BETWEEN HIF-1ALPHA AND p300/CBP WITH HYDROGEN BOND SURROGATE-BASED HELICES” (UNIVERSITY OF SOUTHERN CALIFORNIA, priority 2013, published 2015).

In one experiment the test system is VEGFA. Briefly: Real-time qRT-PCR of VEGFA expression in hypoxic HeLa cells. Particulars: for reduction of VEGF expression levels: DFO hypoxia. The class given is cell-based, human. Background: Real-time PCR tracks product formation cycle by cycle.
In experiment [1] the target is T1, p300-CH1/Flu-HIF C-TAD complex (Homo sapiens, UniProt Q09472).
T1 construct: human p300 CH1 domain (amino acid residues 323-423); GST (cleaved yes); made in house; host or cells: E. coli BL21 (DE3) for p300-CH1
T1 sequence (Q09472 323-423, one chain of several): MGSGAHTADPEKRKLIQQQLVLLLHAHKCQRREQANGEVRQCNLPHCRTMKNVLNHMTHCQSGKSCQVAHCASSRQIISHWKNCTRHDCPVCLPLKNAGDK
The experiment can be described thus: Fluorescence polarization competitive inhibition assay. It counts as binding. (In general: Fluorescence polarisation rises when a labelled molecule tumbles more slowly, as on binding a larger partner.)

The subject of the next experiment is SLC2A1 (GLUT1). The experiment can be described thus: Real-time qRT-PCR of SLC2A1 (GLUT1) expression in hypoxic HeLa cells. Particulars: hypoxia, dose-dependent (10 and 50 μM tested). It counts as cell-based, human.
Experiment [2] deals with hypoxia-inducible promoter activity in MDA-MB-231-HRE-Luc cells. The experiment can be described thus: Luciferase-based HRE promoter activity assay. The conditions noted are these: 50 μM, hypoxia by GasPak EZ pouch.
Method: MDA-MB-231-HRE-Luc cells were grown in high glucose DMEM supplemented with 10% fetal bovine serum and 0.4 g/L geneticin (RPI). Hypoxia was mimicked with desferrioxamine mesylate (DFO, Sigma) at a concentration of 300 μM or by GasPak EZ pouch (BD Biosciences). Cell growth and morphology were monitored by phase-contrast microscopy.
MDA-MB-231-HRE-Luc cells were plated in 24-well plates (BD Falcon) at a seeding density of 35,000 cells/mL. Cells were allowed to adhere and form a monolayer before adding the compounds (˜70% confluence). […] All samples contained a final concentration of 0.1% DMSO; vehicle samples were treated with cell culture media containing 0.1% DMSO. Cells were incubated for 6 hours at 37° C. and 5% CO2 and then hypoxia was induced by placing the cells into GasPak EZ pouch for another 18 hours. The lysates were isolated by using cell culture lysis reagent (Promega). Prior to collecting cell lysate, halt protease inhibitor cocktail (Thermo Scientific) was added to the cell culture lysis reagent in order to ensure the stability of proteins. Cell lysates were collected into low-adhesion pre-chilled Eppendorf tubes (USA Scientific) and centrifuged at 13,000 rpm for 5 minutes at 4° C. Supernatant was collected into another set of pre-chilled Eppendorf tubes and the pellet was discarded. Luciferase assay reagent (100 μL, Promega) was added to 20 μL of cell lysate and luminescence intensity was measured by Turner TD-20e luminometer. The results were normalized to total protein concentration determined by BCA assay. Briefly, 10 μL of cell lysate was added to 200 μL of BCA reagent. Absorbance was measured at 562 nm using a BioTek Synergy 2 microplate reader and normalized to BSA solutions at a concentration range of 125 μg/mL to 2000 μg/mL as standards.

With `CC(C)C[C@@H]1NC(=O)[C@H](CCC(=O)O)NC(=O)CCC=CCN([C@@H](C)C(=O)N[C@@H](CCCNC(=N)N)C(=O)N[C@@H](C)C(=O)N[C@@H](C)C(=O)N[C@@H](CC(=O)O)C(=O)N[C@@H](CCC(N)=O)C(N)=O)C1=O` [HBS 2, XELA*RAADQ-NH2], the “reduction of VEGF expression levels” value in the experiment with VEGFA (50 μM) was 10%. In addition, the “inhibition of the complex on titration” value in experiment [1] (preformed p300-CH1/Flu-HIF C-TAD complex) is on record as “did not lead to reproducible inhibition”. The “inhibition of SLC2A1 expression” value in the experiment on SLC2A1 (GLUT1) was “no activity”. Also, the “reduction of luciferase expression” value in experiment [2] is “less effective”.
Consider `CC(C)C[C@H](NC(=O)[C@H](C)NC(=O)[C@H](CCCNC(=N)N)NC(=O)[C@H](C)N1CC=CCCC(=O)N[C@@H](CCC(=O)O)C(=O)N[C@@H](CC(C)C)C1=O)C(=O)N[C@@H](CC(=O)O)C(=O)N[C@@H](CCC(N)=O)C(N)=O` [HBS 1, XELA*RALDQ-NH2], for which the results for the “reduction of VEGF expression levels” value in the experiment with VEGFA (10 μM) and in the experiment on VEGFA (50 μM) were 50% and “greater than 60%”, respectively. In addition, the “inhibition of VEGF expression under two hypoxia mimetic conditions” value in the experiment with VEGFA (DFO and prolonged incubation in an anaerobic pouch) was “dose-dependent inhibition”. In experiment [1], this compound registered a Ki of 3.5 ± 1.2 µM. Further, in the experiment on SLC2A1 (GLUT1), the “inhibition of SLC2A1 expression” value is recorded as 50-60%. In addition, the “reduction of luciferase expression” value in experiment [2] is 25%.

A word on the Ki: it is the equilibrium dissociation constant of an inhibitor or competing ligand from its target.
